Measured values published in patent publication US20080207655A1, “Diaminopyrimidines as P2X3 and P2X2/3 modulators” (Roche Palo Alto LLC, priority 2007, published 2008).

Legend:
human P2X2/3 receptor = target: T1, human P2X2/3 receptor (Homo sapiens, UniProt P56373+Q9UBL9); experiment: P2X2/3 FLIPR (Fluorometric Imaging Plate Reader) assay, CHO-K1 cells, α,β-meATP-evoked calcium fluorescence; format: cell-based; details: agonist α,β-meATP 5 μM
T1 construct: expressed in transfected cells; host or cells: CHO-K1
T1 sequence (Q9UBL9 1-471): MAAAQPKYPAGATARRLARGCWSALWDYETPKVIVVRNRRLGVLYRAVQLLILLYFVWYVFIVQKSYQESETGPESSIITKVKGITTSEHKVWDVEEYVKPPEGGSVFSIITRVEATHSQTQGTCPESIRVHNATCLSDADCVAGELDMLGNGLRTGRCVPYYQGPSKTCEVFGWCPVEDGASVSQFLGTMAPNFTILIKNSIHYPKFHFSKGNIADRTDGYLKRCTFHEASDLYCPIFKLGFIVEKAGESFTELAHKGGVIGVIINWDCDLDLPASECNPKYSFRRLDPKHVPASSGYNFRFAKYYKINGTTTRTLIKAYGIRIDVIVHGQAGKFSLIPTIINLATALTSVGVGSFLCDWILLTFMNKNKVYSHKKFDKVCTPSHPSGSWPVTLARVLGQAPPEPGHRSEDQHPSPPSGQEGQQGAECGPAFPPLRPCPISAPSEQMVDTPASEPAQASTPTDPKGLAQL
T1 sequence (P56373 1-397): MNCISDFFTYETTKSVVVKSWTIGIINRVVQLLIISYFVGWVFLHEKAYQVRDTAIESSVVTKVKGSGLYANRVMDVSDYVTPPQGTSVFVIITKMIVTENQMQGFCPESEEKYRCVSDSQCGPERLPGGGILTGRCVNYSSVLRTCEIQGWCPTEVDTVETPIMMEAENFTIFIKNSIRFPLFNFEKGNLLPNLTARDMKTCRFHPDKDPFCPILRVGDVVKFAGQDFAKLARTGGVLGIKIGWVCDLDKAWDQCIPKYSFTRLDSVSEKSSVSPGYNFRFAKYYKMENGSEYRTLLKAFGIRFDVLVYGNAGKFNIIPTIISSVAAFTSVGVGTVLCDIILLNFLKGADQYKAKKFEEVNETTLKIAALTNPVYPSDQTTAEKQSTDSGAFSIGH
Experimental: (§1) CHO-K1 cells were transfected with cloned rat P2X3 or human P2X2/3 receptor subunits and passaged in flasks. 18-24 hours before the FLIPR experiment, cells were released from their flasks, centrifuged, and resuspended in nutrient medium at 2.5×10^5 cells/ml. The cells were aliquoted into black-walled 96-well plates at a density of 50,000 cells/well and incubated overnight in 5% CO2 at 37° C. On the day of the experiment, cells were washed in FLIPR buffer (calcium- and magnesium-free Hank's balanced salt solution, 10 mM HEPES, 2 mM CaCl2, 2.5 mM probenecid; FB). Each well received 100 μl FB and 100 μl of the fluorescent dye Fluo-3 AM [2 μM final conc.]. […]
(§2) Test compounds (dissolved in DMSO at 10 mM and serially diluted with FB) or vehicle were added to each well (25 μl of a 4× solution) and allowed to equilibrate for 20 minutes at room temperature. […] Fluorescence was measured for an additional 2 minutes at 1 second intervals after agonist addition. A final addition of ionomycin (5 μM, final concentration) was made to each well of the FLIPR test plate to establish cell viability and maximum fluorescence of dye-bound cytosolic calcium. Peak fluorescence in response to the addition of α,β-meATP (in the absence and presence of test compounds) was measured and inhibition curves generated using nonlinear regression. […]

rat P2X3 receptor = target: T2, rat P2X3 receptor (Rattus norvegicus, UniProt P49654); experiment: P2X3 FLIPR (Fluorometric Imaging Plate Reader) assay, CHO-K1 cells, α,β-meATP-evoked calcium fluorescence; format: cell-based; details: agonist α,β-meATP 1 μM
T2 construct: expressed in transfected cells; host or cells: CHO-K1
T2 sequence (P49654 1-397): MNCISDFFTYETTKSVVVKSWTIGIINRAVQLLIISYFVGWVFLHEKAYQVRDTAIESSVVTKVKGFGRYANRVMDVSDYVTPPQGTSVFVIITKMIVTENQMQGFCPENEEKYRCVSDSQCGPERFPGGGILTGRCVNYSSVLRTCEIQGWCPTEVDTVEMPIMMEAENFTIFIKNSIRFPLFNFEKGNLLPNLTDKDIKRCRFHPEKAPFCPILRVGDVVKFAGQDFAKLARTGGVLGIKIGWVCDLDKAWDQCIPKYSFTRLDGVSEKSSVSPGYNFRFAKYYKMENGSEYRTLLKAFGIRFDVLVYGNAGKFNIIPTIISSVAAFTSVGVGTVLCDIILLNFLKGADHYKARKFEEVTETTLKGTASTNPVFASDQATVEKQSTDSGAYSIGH
Experimental: as §1, §2

COc1cc(C(C)C)c(Oc2cnc(N)nc2N)cc1I [1b, 5-(5-Iodo-2-isopropyl-4-methoxy-phenoxy)-pyrimidine-2,4-diamine, reference compound]
IC50 (human P2X2/3 receptor; read-out: pIC50 for the P2X2/3 receptor (converted)): 0.0417 µM | IC50 (rat P2X3 receptor; read-out: pIC50 for the P2X3 receptor (converted)): 0.00977 µM

C#Cc1cc(Oc2cnc(N)nc2N)c(C(C)C)cc1O [4-(2,4-Diamino-pyrimidin-5-yloxy)-2-ethynyl-5-isopropyl-phenol]
pIC50 for the P2X2/3 receptor (human P2X2/3 receptor): approximately 7.99 | pIC50 for the P2X3 receptor (rat P2X3 receptor): approximately 8.24

COc1cc(C(C)C)c(Oc2cnc(NC(CO)CO)nc2N)cc1S(N)(=O)=O [2a, 5-[4-Amino-2-(2-hydroxy-1-hydroxymethyl-ethylamino)-pyrimidin-5-yloxy]-4-isopropyl-2-methoxy-benzenesulfonamide]
melting point: 180 to 180.9 °C

C#Cc1cc(Oc2cnc(NC(CO)CO)nc2N)c(C(C)C)cc1OC [4a, 2-[4-Amino-5-(5-ethynyl-2-isopropyl-4-methoxy-phenoxy)-pyrimidin-2-ylamino]-propane-1,3-diol]
melting point: 135.5 to 139.1 °C
